# Assay results taken from paper PMC8327158, “PEGylated AdipoRon derivatives improve glucose and lipid metabolism under insulinopenic and high-fat diet conditions” (Journal of Lipid Research, 2021).
# Tested on: HFD-fed wild-type mice
# Assay: Sphingolipid levels in tissues and serum of HFD-fed mice by mass spectrometry
# Assay type: in vivo, mouse
# Conditions: for Cer 14:0 / Cer 16:0 / Cer 18:0 / Cer 18:1 / Cer 20:0 / Cer 22:0 / Cer 24:0 / Cer 24:1 / Cer 26:0 / Cer 26:1 / DeoxySphinganie / Deoxysphingosine / Hexosyl 14:0 / Hexosyl 16:0 / Hexosyl 18:0 / Hexosyl 20:0 / Hexosyl 22:0 / Hexosyl 24:0 / Hexosyl 24:1 / Lactosyl 16:0 / Lactosyl 18:0 / Lactosyl 22:0 / Lactosyl 24:1 / Lactosyl C24:0 / Sphingaine1P / Sphinganine / Sphingosine / Sphingosine1P / dCer 16:0 / dCer 18:0 / dCer 20:0 / dCer 22:0 / dCer 24:0 / dCer 24:1: 5 mg/kg twice a day 5 days, average ± SD
# Method: Six-week-old wild-type male mice were fed HFD for 4 weeks or 7 months In total, 5 mg/Kg of PBS, Adiporon, AdipoRonPEG5, AdipoRonPEG6HTL were injected twice a day for 5 days. After 5 days of treatment, systemic test is performed, and serum (Before and after treatment), subcutaneous, epididymal, liver, heart samples were harvested for qPCR and sphingolipid analysis.
# Flash-frozen tissue samples (~40 mg) in a borosilicate glass tube were quenched with 2.0 ml of organic extraction solvent (isopropanol: ethyl acetate, 15:85; v:v) and homogenized with a mechanical tissue disruptor. Immediately afterward, 20 μl of organic internal standard solution was added (Ceramide/Sphingoid Internal Standard Mixture II diluted 1:10 in ethanol). The mixture was vortexed for 20 s and sonicated in ultrasonic bath for 40 min at 40°C. The organic extract was allowed to reach room temperature, and 1.5 ml of HPLC water was added and a two-phase liquid-liquid extraction was performed. The upper phase was transferred to a new clean tube, and the lower aqueous phase containing the protein pellet was re-extracted with additional 2.0 ml of organic extraction solvent. The organic phases were combined and dried under nitrogen stream at 40°C. Dried extracts were stored at –80°C until analysis. For analysis of ceramides and sphingoid base species, the dried residues were reconstituted in 200 μl of methanol. Sphingomyelins required a sample dilution of 1:50 in methanol prior to analysis. Serum sphingolipids were extracted using a similar methodology requiring 25 μl of serum.
# Liver, subcutaneous adipose tissue, pancreas, pancreatic islets were initially homogenized in 500 μl of cold PBS using an ultrasonic probe disruptor and keeping the sample on ice during sonication. In total, 50 μl of aqueous homogenate was aliquoted for protein determination. In total, 400 μl of the lysate was immediately quenched in 2.0 ml of organic extraction solvent.
# In total, 5 μl of reconstituted samples was injected into an LC/MS/MS system for the analysis of ceramides and sphingoid bases, and 1 μl injection was required for the analysis of sphingomyelins. The system consisted of a Shimadzu LCMS-8050 triple-quadrupole mass spectrometer with the dual ion source operating in electrospray positive ionization mode. The mass spectrometer is coupled to a Shimadzu Nexera X2 UHPLC system equipped with three solvent delivery modules LC-30AD, three degassing units DGU-20A5R, an autosampler SIL-30ACMP, and a column oven CTO-20AC operating at 40°C (Shimadzu Scientific Instruments, Columbia, MD). Six sphingoid bases (d18:1 sphingosine, d18:1 sphingosine-1-phosphate, d18:1 deoxysphingosine, d18:0 sphinganine, d18:0 sphinganine-1-phosphate, d18:0 deoxysphinganine) and […] ceramide species and their metabolites (C16:0, C16:0 dihydroceramide, C16:0 glucosylceramide, C16:0 lactosylceramide, C16:0 sphingomyelin, C18:0, C18:0 dihydroceramide, C18:0 glucosylceramide, C18:0 sphingomyelin, C18:1, C20:0, C22:0, C22:0 glucosylceramide, C24:0, C24:0 dihydroceramide, C24:0 lactosylceramide, C24:0 sphingomyelin, C24:1, C24:1 dihydroceramide, C24:1 glucosylceramide, C24:1 sphingomyelin). Quantitative analysis of sphingolipids was achieved using selective reaction monitoring scan mode. Lipid separation was achieved by reverse phase LC on a 2.1 (i.d.) × 150 mm Ascentis Express C8, 2.7 micron (Supelco, Bellefonte, PA) column under gradient elution, using three different mobile phases: eluent A consisting of methanol/water/formic acid, 600/400/0.8, v/v/v with 5 mM ammonium formate, eluent B consisting of methanol/formic acid, 1,000/0.8, v/v with 5 mM ammonium formate, and eluent C consisting of CH3OH/CH2Cl2 350/650. The concentration of each metabolite was determined according to calibration curves using the peak-area ratio of analyte versus corresponding internal standard. Calibration curves were generated using serial dilutions of each target analyte.
structure (smiles),measurement,setting,value
O=C(COc1ccc(C(=O)c2ccccc2)cc1)NC1CCN(Cc2ccc(OCCOCCOCCOCCOCCO)cc2)CC1 [AdipoRonPEG5],pancreas S1P level,5 mg/kg,trend of elevating S1P
same,pancreas dihydroceramide levels,5 mg/kg,minimal impact
same,scWAT ceramide levels,5 mg/kg,neither AdipoRon nor AdipoRonPEG5 had a noticeable impact
same,pancreas C24:0 and C24:1 ceramides,"5 mg/kg, vs saline controls or AdipoRon",significant reduction
same,hepatic dihydroceramides,IP 5 mg/kg,drastically reduced
same,"serum dihydroceramides dC16:0, dC18:0, dC22:0, dC24:0",IP 5 mg/kg,drastically lowered
same,sphingoid bases including S1P in the liver,IP 5 mg/kg,overall increase
same,Cer 14:0,liver,10700.6 ± 4986.87 pg/mg
same,Cer 16:0,liver,10811.2 ± 3038.11 pg/mg
same,Cer 18:0,liver,41588.7 ± 18827.94 pg/mg
same,Cer 18:1,liver,0 pg/mg
same,Cer 20:0,liver,1285175.8 ± 314117.31 pg/mg
same,Cer 22:0,liver,17214621.7 ± 3730792.66 pg/mg
same,Cer 24:0,liver,13003125.0 ± 3100177.0 pg/mg
same,Cer 24:1,liver,11982004.5 ± 3750645.21 pg/mg
same,Cer 26:0,liver,114936.8 ± 43584.75 pg/mg
same,Cer 26:1,liver,108478.1 ± 38829.61 pg/mg
same,DeoxySphinganie,liver,17056.5 ± 5841.85 pg/mg
same,Deoxysphingosine,liver,674.4 ± 179.33 pg/mg
same,Hexosyl 14:0,liver,9405.4 ± 4098.51 pg/mg
same,Hexosyl 16:0,liver,2563091.7 ± 636477.68 pg/mg
same,Hexosyl 18:0,liver,8702.7 ± 4241.12 pg/mg
same,Hexosyl 20:0,liver,91341.0 ± 29325.4 pg/mg
same,Hexosyl 22:0,liver,18299628.4 ± 6151493.38 pg/mg
same,Hexosyl 24:0,liver,9345685.4 ± 2422218.78 pg/mg
same,Hexosyl 24:1,liver,8806042.3 ± 2575774.26 pg/mg
same,Lactosyl 16:0,liver,857779.3 ± 221964.15 pg/mg
same,Lactosyl 18:0,liver,0.0 ± 0.0 pg/mg
same,Lactosyl 22:0,liver,403630.8 ± 109007.39 pg/mg
same,Lactosyl 24:1,liver,403865.6 ± 85387.31 pg/mg
same,Lactosyl C24:0,liver,284732.8 ± 96368.82 pg/mg
same,Sphingaine1P,liver,124644.1 ± 37940.82 pg/mg
same,Sphinganine,liver,567456.6 ± 215845.28 pg/mg
same,Sphingosine,liver,1814140 ± 638775.97 pg/mg
same,Sphingosine1P,liver,423169.5 ± 201268.1 pg/mg
same,dCer 16:0,liver,7004.1 ± 1704.17 pg/mg
same,dCer 18:0,liver,30523.3 ± 10512.82 pg/mg
same,dCer 20:0,liver,17088.9 ± 5527.47 pg/mg
same,dCer 22:0,liver,85360 ± 20574 pg/mg
same,dCer 24:0,liver,355838.6 ± 67813.11 pg/mg
same,dCer 24:1,liver,64056.2 ± 12063.67 pg/mg
same,Cer 14:0,pancreas,20.8 ± 6.06 pg/mg
same,Cer 16:0,pancreas,28.6 ± 10.14 pg/mg
same,Cer 18:0,pancreas,31.4 ± 12.12 pg/mg
same,Cer 18:1,pancreas,0 pg/mg
same,Cer 20:0,pancreas,1410.3 ± 372.3 pg/mg
same,Cer 22:0,pancreas,5266.0 ± 1349.3 pg/mg
same,Cer 24:0,pancreas,16049.4 ± 4089.83 pg/mg
same,Cer 24:1,pancreas,7744.9 ± 1489.17 pg/mg
same,Cer 26:0,pancreas,162.6 ± 42.67 pg/mg
same,Cer 26:1,pancreas,88.6 ± 17.21 pg/mg
same,DeoxySphinganie,pancreas,2.4 ± 0.49 pg/mg
same,Deoxysphingosine,pancreas,0.0 ± 0.0 pg/mg
same,Hexosyl 14:0,pancreas,4.2 ± 0.35 pg/mg
same,Hexosyl 16:0,pancreas,2792.5 ± 371.94 pg/mg
same,Hexosyl 18:0,pancreas,8.8 ± 4.08 pg/mg
same,Hexosyl 20:0,pancreas,111.6 ± 39.83 pg/mg
same,Hexosyl 22:0,pancreas,5728.8 ± 1888.49 pg/mg
same,Hexosyl 24:0,pancreas,3233.9 ± 524.83 pg/mg
same,Hexosyl 24:1,pancreas,1360.1 ± 170.0 pg/mg
same,Lactosyl 16:0,pancreas,1043.4 ± 60.99 pg/mg
same,Lactosyl 18:0,pancreas,61.7 ± 15.72 pg/mg
same,Lactosyl 22:0,pancreas,258.7 ± 89.43 pg/mg
same,Lactosyl 24:1,pancreas,337.2 ± 90.18 pg/mg
same,Lactosyl C24:0,pancreas,2121.1 ± 714.63 pg/mg
same,Sphingaine1P,pancreas,25.6 ± 5.99 pg/mg
same,Sphinganine,pancreas,34.5 ± 9.74 pg/mg
same,Sphingosine,pancreas,219.2 ± 31.51 pg/mg
same,Sphingosine1P,pancreas,113.2 ± 32.02 pg/mg
same,dCer 16:0,pancreas,5.7 ± 3.12 pg/mg
same,dCer 18:0,pancreas,0.0 ± 0.0 pg/mg
same,dCer 20:0,pancreas,1.9 ± 0.7 pg/mg
same,dCer 22:0,pancreas,54.2 ± 43.08 pg/mg
same,dCer 24:0,pancreas,302.0 ± 155.43 pg/mg
same,dCer 24:1,pancreas,47.3 ± 31.67 pg/mg
same,Cer 14:0,scWAT,32099.4 ± 10520.94 pg/mg
same,Cer 16:0,scWAT,191093.1 ± 51596.09 pg/mg
same,Cer 18:0,scWAT,82819.6 ± 17887.79 pg/mg
same,Cer 18:1,scWAT,21443 ± 6799 pg/mg
same,Cer 20:0,scWAT,147177.5 ± 8589.73 pg/mg
same,Cer 22:0,scWAT,712843.5 ± 129405.16 pg/mg
same,Cer 24:0,scWAT,2685762.3 ± 976754.88 pg/mg
same,Cer 24:1,scWAT,3013765.2 ± 650894.91 pg/mg
same,Cer 26:0,scWAT,24885.1 ± 6744.06 pg/mg
same,Cer 26:1,scWAT,30570.9 ± 6986.86 pg/mg
same,DeoxySphinganie,scWAT,1329.3 ± 1128.06 pg/mg
same,Deoxysphingosine,scWAT,0.0 ± 0.0 pg/mg
same,Hexosyl 14:0,scWAT,5193.4 ± 2870.39 pg/mg
